Tests used:
Format in all cases: in vivo, Helianthus annuus
Conditions in all cases: 14 DAT
[1] = tested on: sunflower line GM40 (A122T); assay: Greenhouse imazapir dose response, GM40
Method: (§1) A greenhouse study was conducted to quantify and contrast the imazapir sensivity of the mutants A122T and A205V in different genetic backgrounds at the whole plant level in sunflower. Seeds of the different sunflower lines that were used in this study were obtained under field conditions.
(§2) Seeds were sown in Petri dishes and, after germination, plantlets were transplanted to pots of 10 cm of diameter in a potting media consisting of equal parts of vermiculite, soil and sand. Plants were grown in a greenhouse under natural light conditions supplemented with 400 W sodium halide lamps to provide a 16 hrs daylength. Day/night temperatures were 25 and 20° C., respectively. At the V2 stage 10 plants of each genotype were randomly assigned to each treatment consisting of […] imazapir doses (0, 40, 80, 160, 240, 320, 400 and 480 g ai/ha), and a zero-time biomass determination. Experiment was arranged as a randomized block design with a full factorial (sunflower line×treatment) arrangement of treatments and 10 replications.
(§3) On the day of herbicide application ten plants of each genotype were cut at the cotyledonal node and dried at 60° C. for 48 hrs zero-time for dried weight determination. […] Height was determined as the distance between the cotyledonal node and the apex of each plant. For root biomass determination, each plant was taken from the pot and the potting media was washed out from the roots. Above ground biomass data from each line were converted to biomass accumulation after application by subtracting the appropriate average zero-time biomass from each sample. Dry biomass data were converted to percentages of the untreated control plants within each line to allow direct comparisons between groups.

[2] = tested on: sunflower line GM1606 (A122T); assay: Greenhouse imazapir dose response, GM1606
Method: as §1, §2, §3

[3] = tested on: sunflower restorer line TH12 (A122T); assay: Greenhouse imazapir dose response, TH12
Method: as §1, §2, §3

CC(C)C1(C)N=C(c2ncccc2C(=O)O)NC1=O (stereo not drawn) [Imazapyr, imazapyr]
plant height, % of untreated ([1]; 3x (240 g ai/ha)): 93.0%
root dry weight, % of untreated ([1]; 3x (240 g ai/ha)): 92.2%
biomass accumulation, % of untreated ([1]; 4x (320 g ai/ha)): 88.3%
plant height, % of untreated ([1]; 4x (320 g ai/ha)): 93.0%
root dry weight, % of untreated ([1]; 4x (320 g ai/ha)): 96.1%
biomass accumulation, % of untreated ([1]; 5x (400 g ai/ha)): 85.6%
plant height, % of untreated ([1]; 5x (400 g ai/ha)): 93.9%
root dry weight, % of untreated ([1]; 5x (400 g ai/ha)): 84.2%
biomass accumulation, % of untreated ([1]; 6x (480 g ai/ha)): 76.8%
plant height, % of untreated ([1]; 6x (480 g ai/ha)): 84.3%
root dry weight, % of untreated ([1]; 6x (480 g ai/ha)): 74.3%
biomass accumulation, % of untreated ([2]; 0.5x (40 g ai/ha)): 100.0%
plant height, % of untreated ([2]; 0.5x (40 g ai/ha)): 97.0%
root dry weight, % of untreated ([2]; 0.5x (40 g ai/ha)): 100%
biomass accumulation, % of untreated ([2]; 1x (80 g ai/ha)): 100.0%
plant height, % of untreated ([2]; 1x (80 g ai/ha)): 95.7%
root dry weight, % of untreated ([2]; 1x (80 g ai/ha)): 100.0%
biomass accumulation, % of untreated ([2]; 2x (160 g ai/ha)): 97.6%
plant height, % of untreated ([2]; 2x (160 g ai/ha)): 95.2%
root dry weight, % of untreated ([2]; 2x (160 g ai/ha)): 92.5%
biomass accumulation, % of untreated ([2]; 3x (240 g ai/ha)): 95.4%
plant height, % of untreated ([2]; 3x (240 g ai/ha)): 95.7%
root dry weight, % of untreated ([2]; 3x (240 g ai/ha)): 85.2%
biomass accumulation, % of untreated ([2]; 4x (320 g ai/ha)): 90.5%
plant height, % of untreated ([2]; 4x (320 g ai/ha)): 94.1%
root dry weight, % of untreated ([2]; 4x (320 g ai/ha)): 87.0%
biomass accumulation, % of untreated ([2]; 5x (400 g ai/ha)): 85.3%
plant height, % of untreated ([2]; 5x (400 g ai/ha)): 94.3%
root dry weight, % of untreated ([2]; 5x (400 g ai/ha)): 88.1%
biomass accumulation, % of untreated ([2]; 6x (480 g ai/ha)): 83.0%
plant height, % of untreated ([2]; 6x (480 g ai/ha)): 91.4%
root dry weight, % of untreated ([2]; 6x (480 g ai/ha)): 69.5%
Phytotoxicity Index ([3]; 0.5x (40 g ai/ha)): 0.0
biomass accumulation, % of untreated ([3]; 0.5x (40 g ai/ha)): 100.0%
plant height, % of untreated ([3]; 0.5x (40 g ai/ha)): 100.0%
root dry weight, % of untreated ([3]; 0.5x (40 g ai/ha)): 99.4%
Phytotoxicity Index ([3]; 1x (80 g ai/ha)): 0.0
biomass accumulation, % of untreated ([3]; 1x (80 g ai/ha)): 99.1%
plant height, % of untreated ([3]; 1x (80 g ai/ha)): 100.0%
root dry weight, % of untreated ([3]; 1x (80 g ai/ha)): 100%
Phytotoxicity Index ([3]; 2x (160 g ai/ha)): 0.0
biomass accumulation, % of untreated ([3]; 2x (160 g ai/ha)): 97.0%
plant height, % of untreated ([3]; 2x (160 g ai/ha)): 101.8%
root dry weight, % of untreated ([3]; 2x (160 g ai/ha)): 100%
Phytotoxicity Index ([3]; 3x (240 g ai/ha)): 0.0
biomass accumulation, % of untreated ([3]; 3x (240 g ai/ha)): 96.1%
plant height, % of untreated ([3]; 3x (240 g ai/ha)): 97.0%
root dry weight, % of untreated ([3]; 3x (240 g ai/ha)): 100.0%
Phytotoxicity Index ([3]; 4x (320 g ai/ha)): 0.0
biomass accumulation, % of untreated ([3]; 4x (320 g ai/ha)): 84.3%
plant height, % of untreated ([3]; 4x (320 g ai/ha)): 92.1%
root dry weight, % of untreated ([3]; 4x (320 g ai/ha)): 74.5%
Phytotoxicity Index ([3]; 5x (400 g ai/ha)): 0.0
biomass accumulation, % of untreated ([3]; 5x (400 g ai/ha)): 77.5%
plant height, % of untreated ([3]; 5x (400 g ai/ha)): 84.8%
root dry weight, % of untreated ([3]; 5x (400 g ai/ha)): 65.0%
Phytotoxicity Index ([3]; 6x (480 g ai/ha)): 0.5
biomass accumulation, % of untreated ([3]; 6x (480 g ai/ha)): 70.7%
plant height, % of untreated ([3]; 6x (480 g ai/ha)): 79.8%
root dry weight, % of untreated ([3]; 6x (480 g ai/ha)): 57.8%

Reference: patent US20150181873A1, “HERBICIDE-RESISTANT SUNFLOWER PLANTS, POLYNUCLEOTIDES ENCODING HERBICIDE=RESISTANT ACETO HYDROXY ACID SYNTHASE LARGE SUBUNIT PROTEINS, AND METHODS OF USE” (NIDERA S.A., priority 2013, published 2015)
